O=P([O-])([O-])[O-].[Tb+3] [terbium orthophosphate]
101.33 kPa, Metastable crystal
Details | mass density [kg/m3] | molar entropy [J/K/mol]
7 K, Vacuum adiabatic calorimetry | – | 0.0744
8 K, Vacuum adiabatic calorimetry | – | 0.1113
9 K, Vacuum adiabatic calorimetry | – | 0.1586
10 K, Vacuum adiabatic calorimetry | – | 0.2174
12 K, Vacuum adiabatic calorimetry | – | 0.3747
14 K, Vacuum adiabatic calorimetry | – | 0.5915
16 K, Vacuum adiabatic calorimetry | – | 0.8724
18 K, Vacuum adiabatic calorimetry | – | 1.219
20 K, Vacuum adiabatic calorimetry | – | 1.627
25 K, Vacuum adiabatic calorimetry | – | 2.889
30 K, Vacuum adiabatic calorimetry | – | 4.414
35 K, Vacuum adiabatic calorimetry | – | 6.129
40 K, Vacuum adiabatic calorimetry | – | 7.99
45 K, Vacuum adiabatic calorimetry | – | 9.975
50 K, Vacuum adiabatic calorimetry | – | 12.07
55 K, Vacuum adiabatic calorimetry | – | 14.26
60 K, Vacuum adiabatic calorimetry | – | 16.53
70 K, Vacuum adiabatic calorimetry | – | 21.26
80 K, Vacuum adiabatic calorimetry | – | 26.15
90 K, Vacuum adiabatic calorimetry | – | 31.12
100 K, Vacuum adiabatic calorimetry | – | 36.12
110 K, Vacuum adiabatic calorimetry | – | 41.09
120 K, Vacuum adiabatic calorimetry | – | 46.02
130 K, Vacuum adiabatic calorimetry | – | 50.9
140 K, Vacuum adiabatic calorimetry | – | 55.72
150 K, Vacuum adiabatic calorimetry | – | 60.46
160 K, Vacuum adiabatic calorimetry | – | 65.13
170 K, Vacuum adiabatic calorimetry | – | 69.73
180 K, Vacuum adiabatic calorimetry | – | 74.26
190 K, Vacuum adiabatic calorimetry | – | 78.71
200 K, Vacuum adiabatic calorimetry | – | 83.09
210 K, Vacuum adiabatic calorimetry | – | 87.39
220 K, Vacuum adiabatic calorimetry | – | 91.63
230 K, Vacuum adiabatic calorimetry | – | 95.79
240 K, Vacuum adiabatic calorimetry | – | 99.88
250 K, Vacuum adiabatic calorimetry | – | 103.9
260 K, Vacuum adiabatic calorimetry | – | 107.9
270 K, Vacuum adiabatic calorimetry | – | 111.7
280 K, Vacuum adiabatic calorimetry | – | 115.6
290 K, Vacuum adiabatic calorimetry | – | 119.3
298 K, X-ray diffraction | 6088 | –
300 K, Vacuum adiabatic calorimetry | – | 123
310 K, Vacuum adiabatic calorimetry | – | 126.6
320 K, Vacuum adiabatic calorimetry | – | 130.2
325 K, Vacuum adiabatic calorimetry | – | 132
340 K, Small sample (50 mg) DSC | – | 137.1
360 K, Small sample (50 mg) DSC | – | 143.9
380 K, Small sample (50 mg) DSC | – | 150.4
400 K, Small sample (50 mg) DSC | – | 156.7
420 K, Small sample (50 mg) DSC | – | 162.7
440 K, Small sample (50 mg) DSC | – | 168.6
460 K, Small sample (50 mg) DSC | – | 174.3
480 K, Small sample (50 mg) DSC | – | 179.8
500 K, Small sample (50 mg) DSC | – | 185.2
520 K, Small sample (50 mg) DSC | – | 190.4
540 K, Small sample (50 mg) DSC | – | 195.4
560 K, Small sample (50 mg) DSC | – | 200.3
580 K, Small sample (50 mg) DSC | – | 205.1
600 K, Small sample (50 mg) DSC | – | 209.7
620 K, Small sample (50 mg) DSC | – | 214.2
640 K, Small sample (50 mg) DSC | – | 218.6
660 K, Small sample (50 mg) DSC | – | 222.8
680 K, Small sample (50 mg) DSC | – | 227
700 K, Small sample (50 mg) DSC | – | 231
720 K, Small sample (50 mg) DSC | – | 235
740 K, Small sample (50 mg) DSC | – | 238.8
760 K, Small sample (50 mg) DSC | – | 242.6
780 K, Small sample (50 mg) DSC | – | 246.2
800 K, Small sample (50 mg) DSC | – | 249.8
820 K, Small sample (50 mg) DSC | – | 253.3
840 K, Small sample (50 mg) DSC | – | 256.8
860 K, Small sample (50 mg) DSC | – | 260.1
880 K, Small sample (50 mg) DSC | – | 263.4
900 K, Small sample (50 mg) DSC | – | 266.7
920 K, Small sample (50 mg) DSC | – | 269.8
940 K, Small sample (50 mg) DSC | – | 272.9
960 K, Small sample (50 mg) DSC | – | 275.9
980 K, Small sample (50 mg) DSC | – | 278.9
1000 K, Small sample (50 mg) DSC | – | 281.8
1009 K, Small sample (50 mg) DSC | – | 283.1

Details | Triple point temperature [K]
Crystal 2, DSC | 1643
